Columns and labels:
Type in all cases: cell-based, human
PEN2 = test: Western blot of PEN2 protein in IMR-32 cells; details: 150 ppb, 24 hours
Protocol: (§1) IMR-32 cells were seeded on 6-well plates and then treated with control and various compounds for 6 hours and 24 hours, as described above. After treatments, cells were rinsed with ice-cold PBS and lysed in ice-cold RIPA buffer containing complete proteinase and phosphatase inhibitors (Thermo-Fisher Scientific, Waltham, Mass.) on ice for 30 min Cell lysates were collected using a cell scraper and transfer pipette and then centrifuged at 12000×g for 30 min at 4° C. to remove the DNA pellet and obtain the protein extract. Protein levels in the supernatant of these cell lysates were determined using the Pierce Micro-BCA protein assay kit (Thermo Scientific-Piece Biotechnology, Rockford, Ill.) according to the manufacturer's protocol […]
(§2) Positive signals on the membrane blots were detected using Amersham's enhanced chemiluminescence (ECL) Western Blotting Prime Detection reagents (GE healthcare Lifescience, Pittsburgh, Pa.). Images of these luminescence signals on the membrane blots were captured using the LI-COR Odyssey Fc Image system (Lincoln, Nebr.). […] Protein band densities in the Western blots were determined using the Li—COR Image studio software or NIH ImageJ software, and then normalized by ACTB protein level in each sample. […]

APOE = test: QRT-PCR of APOE mRNA in IMR-32 cells (normal, control KD, FOXO4 KD); details: 24 hours
Protocol: IMR-32 cells were cultured on 12-well plates for 24 hours and then incubated with FOXO4 siRNA lentiviruses (SC-29650V, Santa Cruz) or control siRNA lentiviruses (sc-108080, Santa Cruz) in the presence of Polybrene (5 μg/ml, Santa Cruz) for 24 hours according to the manufacturer's protocol. These lentiviral siRNA-transfected cells were amplified in normal media for 3 days and then incubated with puromycin for 9-14 days to obtain the stable Control KD (stably transfected with the control siRNAs) and FOXO4KD (stably transfected with Foxo4 siRNAs) cells. These control and Foxo4 KD cells were subjected to cell survival, mitochondrial potential and RNA analysis.
Human IMR-32 cells were seeded on gelatinized 6-well (6.5×10^5 cells/well) or 24-well (1.3×10^5 cells/well) plates. Cells were treated with control (0 ppb) or various compounds for 6 hours or 24 hours. Total RNA from these cells was isolated using Trizol (Invitrogen) according to the manufacturer's protocol, and then incubated with DNase I to remove any potential contaminated genomic DNA. Then RNA samples were subjected to real-time PCR analysis using the Applied-Bioscience's RT kit and predesigned Taqman probes (Invitrogen), as described previously (Lan et al EMBO J 2003). The mRNA levels of UCP1, UCP2, UCP3, SLC25A27 (UCP4), SLC25A14 (UCP5), PSEN1, Nicastrin, GSK3B, MAPK11-14, PPARG, APOE, RCAN1, RCAN1.1, G6PC, INSR, IGF1R and FOXO4 were measured. Three to six samples were analyzed in each treatment group. Data were normalized by Actin B (ACTB) or Glyceraldehyde Phosphate Dehydrogenase (GAPDH) mRNA levels in each sample and are presented as mean±SEM of 3-6 samples.
To explore this possibility, IMR-32 cells were treated with 150 ppb Compound C, Compound D or Compound E (150 ppb) for 6 hours and 24 hours, and then subjected to Western blot and QRT-PCR analyses. […] Therefore, Compound C and Compound D are downregulators of PPARG in IMR-32 cells at both mRNA and protein levels. […]

G6PC = test: Western blot of G6PC protein in IMR-32 cells; details: 150 ppb, 24 hours
Protocol: as §1, §2

SMILES: C[Se]C[C@H]1O[C@@H](n2cnc3c(N)ncnc32)C(O)C1O (stereo in doubt) [Compound C, 5′-deoxy-5′-methylselenoadenosine]
- PEN2 protein levels (PEN2): but not PEN2 proteins, were reduced
- APOE mRNA expression (APOE; FOXO4KD cells, 75 ppb and 150 ppb): not significantly altered
- APOE mRNA levels (APOE; IMR-32 cells, 150 ppb): significantly decreased
- APOE mRNA levels (APOE; control normal cells, 75 ppb and 150 ppb): attenuated
- G6Pc protein levels (G6PC): visibly increased
- increase of G6Pc protein expression levels (G6PC; quantitative analysis): ~3 fold
